PubChem BioAssay AID449762 (Southern Research Specialized Biocontainment Screening …, 2010)
pIC50: −log10 of the molar value. Records with an inconclusive call do not appear.

Tested on: M. tuberculosis H37Rv growth inhibition, 7H9 media
Assay: M. tuberculosis growth inhibition, HTS (AID 449762);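 also: bacterial growth assessed after seven days of incubation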
Conditions: for IC90: measured here: IC90 growth inhibition

Compound | pIC50 | IC90
O=C(OCc1csc(Nc2ccccc2)n1)c1ccc(Cl)cc1 | 4.77 | 45.7 µM
Oc1ccc(N=Nc2n[nH]c(-c3ccc(Cl)cc3)n2)cc1 | 4.93 | 59 µM
Cc1ccc(S(=O)(=O)CNC(=S)c2ccc3ccccc3c2)cc1 |  | > 100 µM
CCOc1ccc(NC(=O)CCc2nnc3ccc(N4CCC(C)CC4)nn23)cc1 | 5.06 | 15.3 µM
Cc1ccc(S(=O)(=O)/N=C(\CCl)N2CCOCC2)cc1 | 5.19 | 14.9 µM
O=C(NCCc1ccccc1)[C@@H]1CC=C[C@@H]2CCN(Cc3ccc(Cl)c(Cl)c3)C(=O)[C@@H]21 | 4.29 | 79.1 µM
Cc1cc(O)c2c(c1)C(=O)c1cc(O)cc(O)c1C2=O | 4.04 | > 100 µM
Cc1ccc(-c2csc3ncnc(Nc4ccc(N5CCOCC5)cc4)c23)cc1 | 4.73 | 50.1 µM
Nc1c(C(=O)OCC2CCCO2)c2nc3ccccc3nc2n1C1CCCC1 (centres undefined) | 4.26 | > 100 µM
COc1ccccc1C(CNC(=O)C(C)(C)Oc1ccc(Cl)cc1)N1CCCC1 (centres undefined) | 4.63 | 26.5 µM
Nc1nonc1C(=O)NCCNCc1c(OCc2ccccc2F)ccc2ccccc12 | 4.40 | 50.5 µM
O=c1[nH]c2ccccc2c2oc(CCl)nc12 | 5.94 | 19.2 µM
CCc1ccc(C2c3[nH]c4ccccc4c3CCN2C(=O)c2ccc(=O)n(C)n2)cc1 (centres undefined) | 4.30 | 74.3 µM
O=C(OCC(=O)N1CCN(c2ccccc2)CC1)c1cnc(Cl)c(Cl)c1 | 4.70 | 41.7 µM
Clc1ccc2c(c1)C(c1ccccc1Cl)=NCc1nnc(N3CCN(CCOc4ccccc4)CC3)n1-2 | 4.37 | 48 µM
C=CCC1(CC=C)CCCN1C(=O)c1cc(COc2ccc(-n3cncn3)cc2)on1 | 4.38 | > 100 µM
O=C1C2C(C(=O)N1/N=C/c1ccc([N+](=O)[O-])o1)C1C=CC2C12CC2 (centres undefined) | 4.72 | 29.6 µM
O=C(C1CCCN(c2ncnc3c2nc2n3CCCCC2)C1)N1CCN(c2ccc(Cl)cc2)CC1 (centres undefined) | 4.51 | 40.3 µM
Cc1cccc(C)c1Nc1c(-c2ccccn2)nc2ccccn12 | 5.66 | 5.73 µM
Cc1ccc(CN2CC(C(=O)OCc3ccccc3Cl)CC2=O)cc1 (centres undefined) | 5.33 | 28.7 µM
COc1cc(C(=O)/C=C/c2cccnc2)c([N+](=O)[O-])cc1OC | 5.26 | 8.56 µM
O=C(Cn1ncc(Cl)c(Cl)c1=O)c1ccc2c(c1)OCCO2 | 5.17 | 12.2 µM
Cc1ccc(NC(=O)COc2ccccc2CNC(C)(C)CC(C)(C)C)cc1 | 4.65 | 29.8 µM

Compound | pIC50 | IC90
Cc1c(Cl)ccc2c1NC(=O)[C@]21N[C@@H](Cc2ccccc2)[C@H]2C(=O)N(c3ccc(F)cc3)C(=O)[C@H]21 | 4.64 | 26.1 µM
O=C1NCN(c2ccccc2)C12CCN(CCCC(c1ccc(F)cc1)c1ccc(F)cc1)CC2 | 4.43 | 47.1 µM
O=C(/C=C/c1cc(Br)ccc1O)c1ccco1 | 5.10 | 13.4 µM
CCc1ccc2nc(N3C(=O)C(O)=C(C(=O)c4ccco4)C3c3cccs3)sc2c1 (centres undefined) | 4.08 | 92.3 µM
Cn1c(/C=N/Nc2nc3ccccc3[nH]2)nc2ccccc21 | 4.40 | 61.4 µM
CSc1nc2nc3c(c(=O)n2[nH]1)CCCC3 | 4.69 | > 100 µM
Cc1ccc(Cn2ccsc2=NC(=O)CCl)cc1 | 6.24 | 1.52 µM
Cc1ccc2nc(-c3cccc(Br)c3)cc(C(=O)NC3=NCCS3)c2c1 | 4.85 | 28.9 µM
COc1ccc(N/N=C(/N=Nc2nc(C)cc(=O)[nH]2)c2ccccc2)cc1 | 5.23 | 6.69 µM
CCc1ccc2c(c1)/C(=C/C(=O)c1cccs1)C(=O)N2 | 5.97 | 3.19 µM
Cc1ccccc1Cn1ccc(=NCc2ccccc2)cc1 | 5.36 | 12 µM
C=CCOc1ccc(/C=C/C(=O)OCC(=O)NCC2CCCO2)cc1 (centres undefined) | 4.01 | > 100 µM
CS/C(Nc1cc(Cl)ccc1Cl)=C(/C#N)C(=O)c1ccco1 | 5.44 | 40.2 µM
O=C(Nc1nc2nc(-c3ccccc3)cc(=O)n2[nH]1)c1ccccc1 | 4.75 | > 100 µM
NC(=S)N=Nc1ccc(NN=C(N)N)cc1 | 4.77 | 24.7 µM
CCc1ccc(N=CC23c4ccccc4C(c4ccccc42)C2C(=O)N(c4ccc(OC)cc4)C(=O)C23)cc1 (centres undefined) | 4.27 | > 100 µM
Cc1nc2ccc(OC(=O)c3ccccc3)cc2s1 | 4.18 | 86 µM
Cc1ncc(C23CC4CC(CC(C4)C2)C3)[nH]1 | 4.30 | 51.5 µM
COc1ccc(-c2ccc(-c3noc(C(C)C)n3)c(OC)n2)cc1 | 4.97 | 26.7 µM
N#C/C(=C\c1ccc(-c2ccc(Br)cc2)o1)C(=O)NCCc1c[nH]c2ccccc12 | 4.02 | > 100 µM
Cc1ccc(C(=O)c2cc(C)sc2NC(=O)CN2CCN(C(=O)c3ccco3)CC2)cc1 | 5.42 | 12 µM
O=C(OCC(=O)c1cccs1)C1=COCCO1 | 4.67 | > 100 µM
C=CC[n+]1ccn(-c2nc3ccccc3nc2[N-]S(=O)(=O)c2cccs2)c1 | 4.60 | 28.1 µM

Compound | pIC50 | IC90
CC1CC(C)(C)Nc2ccc(OC(=O)c3ccco3)cc21 (centres undefined) | 5.20 | 16.4 µM
CCOC(=O)N1CCN(c2nc(N(c3ccccc3)c3ccccc3)nc(-n3ccnc3)n2)CC1 | 4.03 | > 100 µM
N=c1oc2cc(O)ccc2cc1C(=O)Nc1ccc(Br)cc1 | 6.07 | 4.2 µM
C=C(C)C1Cc2c(C)nn(-c3nc(C)cc(C)n3)c2C1 (centres undefined) | 5.57 | 6.74 µM
Cc1cc(Nc2cc(Cl)nc(Sc3ccc(NC(=O)C4CC4)cc3)n2)n[nH]1 | 4.58 | 45.1 µM
CCN1CCN(CCCNC(=O)c2ccc(/C=C3/Oc4ccccc4N(Cc4cccc(C)c4)C3=O)cc2)CC1 | 4.53 | 42.2 µM
CC1=C(C)C(=O)C(CCCCC#CCCCC#CCO)=C(C)C1=O | 4.96 | 18.7 µM
Cc1ccc(/C=C2\SC(N3CCCC3)=NC2=O)cc1 | 6.42 | 1.68 µM
Cn1cccc1/C=C1/C(=O)NC(=S)N(Cc2ccc(F)cc2)C1=O | 4.62 | > 100 µM
CCCOP(=O)(OCCC)c1c([N+](=O)[O-])cc(C(F)(F)F)cc1[N+](=O)[O-] | 5.41 | 6.52 µM
O=C(COC(=O)c1cccs1)c1ccccc1 | 4.35 | > 100 µM
O=C(NNC(=O)C12CC3CC(CC(C3)C1)C2)c1ccccn1 | 5.27 | 23.5 µM
O=C(OCn1nnc2ccccc2c1=O)C1CCCCC1 | 5.45 | 7.16 µM
COc1ccc(-c2ccc(OC)c([C@H]3[C@@H]4C=CCC[C@@]4(C)C(=O)N3Cc3ccccc3)c2)cc1OC | 4.88 | 24.8 µM
C=CCNC(=O)c1onc(CCl)c1C(=O)OC | 5.78 | 5.93 µM
Cc1c(C(=O)Nc2nc3ccccc3[nH]2)oc2c(Cl)cccc12 | 4.17 | > 100 µM
Cn1c(NC(=S)Nc2ccccc2)nc2ccccc21 | 5.43 | 6.27 µM
CCCCOc1ccc(Br)cc1/C(C)=N/NC1=NCCN1 | 4.68 | 33.3 µM
COC(=O)c1ccc(CSc2nc(C(F)(F)F)c3c(c2C#N)CCC3)o1 | 4.33 | > 100 µM
CCC1(c2ccccc2)ON(c2c(Br)cccc2Br)C1=O (centres undefined) | 4.77 | 50.4 µM
CC(Oc1cc2oc(=O)c3c(c2cc1Cl)CCCC3)C(=O)NCc1ccccn1 (centres undefined) | 5.13 | > 100 µM
C/C(=N\NC(=O)CC(C)C)c1c(C(F)(F)F)[nH]n(-c2nc3ccccc3s2)c1=O | 4.37 | > 100 µM
Cc1nc2scc(-c3cccs3)c2c(=O)n1-n1cccc1 | 4.25 | > 100 µM

Compound | pIC50 | IC90
Cc1ccc(C(=O)CC(SCC(=O)O)c2ccc([N+](=O)[O-])cc2)cc1 (centres undefined) | 5.24 | 6.72 µM
Cc1cc(C)n2nc(N)c(N=Nc3ccccc3)c2n1 | 5.54 | 3.27 µM
c1ccc(CC2CCN(C3=Nc4cccc5cccc3c45)CC2)cc1 | 4.53 | 38.1 µM
Cc1cc(C)c(C(N)=O)c(SCC(=O)c2ccc(Cl)cc2)n1 | 4.45 | 63.1 µM
Cc1ccc(OCCN2CCN(c3ncnc4sc(C)c(C)c34)CC2)cc1 | 4.03 | > 100 µM
Cc1ccc2[nH]c(C(=O)NN=C3CCCCC3)c(-c3ccccc3)c2c1 | 4.54 | 56.6 µM
O=C(NCCC1=CCCCC1)c1c(O)nc2sccn2c1=O | 4.14 | > 100 µM
Nc1c(C(=O)O)cnc2c(-c3ccc(Cl)cc3)cnn12 | 4.59 | 55.6 µM
COc1ccccc1N(C)S(=O)(=O)c1ccc(C(=O)Nc2ccc3nc(C)sc3c2)cc1 | 4.24 | > 100 µM
NC(=S)N/N=C/c1ccc(-c2ccccc2)o1 | 4.31 | 75 µM
Oc1ccccc1NCC(O)Cn1ccc2ccccc21 (centres undefined) | 5.27 | 8.32 µM
CCOC(=O)C1=NOC(CNc2ncc(C(F)(F)F)cc2Cl)C1 (centres undefined) | 5.15 | 14.1 µM
COc1cc(NC(C)CCCN)c2ncccc2c1 (centres undefined) | 5.04 | 13.9 µM
COc1ccc(C(=O)C[n+]2ccc3c(c2)nc(-c2cc(OC)c(OC)cc2OC)n3C)cc1 | 4.98 | 13.4 µM
Nc1nc(CN2CCN(c3ccccc3F)CC2)nc(N2CCCc3ccccc32)n1 | 5.30 | 14 µM
Cn1nc(-c2ccc(N3CCCCC3)c(NC(=O)c3ccco3)c2)c2ccccc2c1=O | 5.63 | 16.1 µM
CC(Oc1ccc2ccccc2c1)C(=O)NNC(=S)NC(=O)c1ccco1 (centres undefined) | 5.22 | 45 µM
CCc1cc2c(=O)n(C(C)C(=O)OC3CCCCC3)cnc2s1 (centres undefined) | 4.75 | 27.8 µM
CN1CC=C(/C=C/c2ccc(-c3ccccc3)cc2)CC1 | 4.70 | 26.9 µM
Cc1nc(N)nc(N)c1CCCc1ccc(Cl)c(Cl)c1 | 4.11 | > 100 µM
CCn1cc([N+](=O)[O-])c(C(=O)N2N=C(c3ccc4ccccc4c3)CC2c2ccccc2O)n1 (centres undefined) | 4.30 | > 100 µM
